In assay [1] the test system is secretion of ApoB, HepG2 cells. Briefly: Quantification of the secretion of ApoB in HepG2 cells. The class given is cell-based. The following applies: Homo sapiens, 24 hours of incubation, pIC50 = -log IC50. The procedure: HepG2 cells were cultured in 24-well plates in MEM Rega 3 containing 10% fetal calf serum. At 70% confluency, the medium was changed and the test compound or carrier (DMSO, 0.4% final concentration) was added. After 24 hours of incubation, the medium was transferred to Eppendorf tubes and cleared by centrifugation. A sheep antibody directed against either apoB was added to the supernatant and the mixture was kept at 8° C. for 24 hours. Then, rabbit anti-sheep antibody was added and the immune complex was allowed to precipitate for 24 hours at 8° C. The immunoprecipitate was pelleted by centrifugation for 25 minutes at 1320 g and washed twice with a buffer containing 40 mM Mops, 40 mM NaH2PO4, 100 mM NaF, 0.2 mM DTT, 5 mM EDTA, 5 mM EGTA, 1% Triton-X-100, 0.5% sodium deoxycholate (DOC), 0.1% SDS, 0.2 mM leupeptin and 0.2 mM PMSF. Radioactivity in the pellet was quantified by liquid scintillation counting.

Assay [2] has as its target MTP (Homo sapiens, UniProt P55157). Briefly: MTP assay (triglyceride transfer from donor to acceptor vesicles). The class given is biochemical. The following applies: MTP activity, [14C]-triglyceride transfer between vesicles, 37° C. The protocol:
MTP activity was measured using an assay similar to one described by J. R. Wetterau and D. B. Zilversmit in Chemistry and Physics of Lipids, 38, 205-222 (1985). To prepare the donor and acceptor vesicles, the appropriate lipids in chloroform were put into a glass test tube and dried under a stream of N2. A buffer containing 15 mM Tris-HCl pH 7.5, 1 mM EDTA, 40 mM NaCl, 0.02% NaN3 (assay buffer) was added to the dried lipid. The mixture was vortexed briefly and the lipids were then allowed to hydrate for 20 min on ice. Vesicles were then prepared by bath sonication (Branson 2200) at room temperature for maximum 15 min. Butylated hydroxytoluene was included in all vesicle preparations at a concentration of 0.1%. The lipid transfer assay mixture contained donor vesicles (40 nmol phosphatidylcholine, 7.5 mol % of cardiolipin and 0.25 mol % glycerol tri[1-^14C]-oleate), acceptor vesicles (240 nmol phosphatidylcholine) and 5 mg BSA in a total volume of 675 μl in a 1.5 ml microcentrifuge tube. Test compounds were added dissolved in DMSO (0.13% final concentration). After 5 minutes of pre-incubation at 37° C., the reaction was started by the addition of MTP in 100 μl dialysis buffer. The reaction was stopped by the addition of 400 μl DEAE-52 cellulose pre-equilibrated in 15 mM Tris-HCl pH 7.5, 1 mM EDTA, 0.02% NaN3 (1:1, vol/vol). The mixture was agitated for 4 min and centrifuged for 2 min at maximum speed in an Eppendorf centrifuge (4° C.) to pellet the DEAE-52-bound donor vesicles. An aliquot of the supernatant containing the acceptor liposomes was counted and the [^14C]-counts were used to calculate the percent triglyceride transfer from donor to acceptor vesicles.

Where only a bound is given, the exact number is not on record here.

MTP, sequence (P55157 19-894, species assumed): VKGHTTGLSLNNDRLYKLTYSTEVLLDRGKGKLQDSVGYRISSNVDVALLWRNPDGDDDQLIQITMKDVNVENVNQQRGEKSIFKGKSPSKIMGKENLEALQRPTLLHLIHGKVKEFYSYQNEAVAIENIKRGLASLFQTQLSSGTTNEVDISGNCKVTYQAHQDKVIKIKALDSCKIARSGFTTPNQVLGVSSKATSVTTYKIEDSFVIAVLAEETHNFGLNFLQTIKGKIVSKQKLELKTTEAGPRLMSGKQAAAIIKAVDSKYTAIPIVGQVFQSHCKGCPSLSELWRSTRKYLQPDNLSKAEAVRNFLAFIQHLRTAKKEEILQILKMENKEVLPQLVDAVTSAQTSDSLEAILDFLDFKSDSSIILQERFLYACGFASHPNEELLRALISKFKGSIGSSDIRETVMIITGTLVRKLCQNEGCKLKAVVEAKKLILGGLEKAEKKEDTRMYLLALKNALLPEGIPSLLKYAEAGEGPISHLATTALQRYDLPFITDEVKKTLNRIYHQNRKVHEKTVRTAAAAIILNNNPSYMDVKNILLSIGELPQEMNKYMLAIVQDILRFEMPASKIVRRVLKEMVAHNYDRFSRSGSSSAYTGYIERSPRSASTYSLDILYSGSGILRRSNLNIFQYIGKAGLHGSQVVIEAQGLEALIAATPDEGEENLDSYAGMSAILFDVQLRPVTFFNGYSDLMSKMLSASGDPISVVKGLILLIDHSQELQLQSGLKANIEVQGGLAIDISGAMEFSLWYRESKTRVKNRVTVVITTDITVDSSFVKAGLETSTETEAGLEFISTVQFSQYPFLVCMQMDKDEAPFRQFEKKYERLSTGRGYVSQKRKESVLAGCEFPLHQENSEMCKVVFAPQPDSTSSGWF
MTP, sequence (P07237 18-508 partner, species assumed): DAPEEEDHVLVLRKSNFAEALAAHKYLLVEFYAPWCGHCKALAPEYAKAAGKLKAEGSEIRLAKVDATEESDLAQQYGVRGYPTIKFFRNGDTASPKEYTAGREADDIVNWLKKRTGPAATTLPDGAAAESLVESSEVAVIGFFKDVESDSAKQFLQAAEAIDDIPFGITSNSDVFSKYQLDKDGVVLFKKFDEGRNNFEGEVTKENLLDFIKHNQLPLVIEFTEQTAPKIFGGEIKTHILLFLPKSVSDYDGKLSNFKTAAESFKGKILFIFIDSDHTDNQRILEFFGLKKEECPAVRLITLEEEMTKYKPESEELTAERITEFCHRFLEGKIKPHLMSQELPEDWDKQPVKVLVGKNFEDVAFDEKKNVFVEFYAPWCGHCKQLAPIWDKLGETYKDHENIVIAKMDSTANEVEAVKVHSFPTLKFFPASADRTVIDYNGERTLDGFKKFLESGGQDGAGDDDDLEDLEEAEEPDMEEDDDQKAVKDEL

Take `CCOC(=O)[C@]1(c2ccccc2)CC[C@H](C(=O)N(C)CCCNC(=O)c2ccccc2OC)c2ccccc21` [compound 23]: the IC50 in assay [1] is 597 nM; in assay [2], 11.6 nM.
Regarding `COC(=O)CCNC(=O)[C@]1(c2ccccc2)CC[C@@H](C(=O)N2CCOC(CNC(=O)c3cccnc3O)C2)c2ccccc21` (stereo partly shown) [compound 43], in assay [2], the IC50 is > 1000 nM.
For the compound `COC(=O)CCNC(=O)[C@]1(c2ccccc2)CC[C@@H](C(=O)N2CCCC(NC(=O)c3cccnc3OC)CC2)c2ccccc21` (stereo partly shown) [compound 33], the figures for the IC50 in assay [1] and in assay [2] were > 1000 nM and 80 nM, respectively.
For `CCOC(=O)[C@]1(c2ccccc2)CC[C@@H](C(=O)N(C)CCNC(=O)c2ccccc2OC)c2ccccc21` [compound 8], in that order: > 1000 nM and 27 nM.
On to `CCOC(=O)[C@]1(c2ccccc2)CC[C@H](C(=O)NCCNC(=O)c2ccccc2)c2ccccc21` [compound 13], for which the IC50 in assay [2] is 5380 nM.
Turning to `CCOC(=O)[C@]1(c2ccccc2)CC[C@@H](C(=O)N(C)CCNC(=O)c2ccccc2-c2ccc(C(F)(F)F)cc2)c2ccccc21` [compound 9], the results for the IC50 in assay [1] and in assay [2] were 128 nM and 19.1 nM, respectively.
As to `CCOC(=O)[C@]1(c2ccccc2)CC[C@@H](C(=O)NCCNC(=O)c2ccccc2)c2ccccc21` [compound 1], the IC50 in assay [2] was 1250 nM.
Consider `CCOC(=O)[C@@]1(c2ccccc2)CC[C@H](C(=O)NCCNC(=O)c2ccccc2OC)c2ccccc21` (stereo in doubt) [compound 25], for which the IC50 was 17.3 nM in assay [1] and 6.52 nM in assay [2].
With `CCOC(=O)[C@]1(c2ccccc2)CC[C@H](C(=O)NCCNC(=O)c2ccccc2-c2ccc(C(F)(F)F)cc2)c2ccccc21` [compound 15], in assay [2], the midpoint of inhibition, the IC50, lay at 2750 nM.
With `CCCOC(=O)[C@]1(c2ccccc2)CC[C@@H](C(=O)N2CCCC(NC(=O)c3ccccc3OC)CC2)c2ccccc21` (stereo partly shown) [compound 42], the IC50 is 286 nM in assay [1] and 23 nM in assay [2].
With `CCOC(=O)[C@]1(c2ccccc2)CC[C@H](C(=O)NCCCNC(=O)c2ccccc2)c2ccccc21` [compound 16], the IC50 in assay [1] is 791 nM; in assay [2], > 100 nM.
On the same counts, the results for `CCOC(=O)[C@]1(c2ccccc2)CC[C@H](C(=O)N(C)CCNC(=O)c2ccccc2OC)c2ccccc21` [compound 20] are > 1000 nM and 70.6 nM.
As to `CCOC(=O)[C@]1(c2ccccc2)CC[C@@H](C(=O)N(C)CCNC(=O)c2ccccc2)c2ccccc21` [compound 7], the IC50 in assay [1] was > 1000 nM; in assay [2], 85.5 nM.
In turn, `CCOC(=O)[C@]1(c2ccccc2)CC[C@@H](C(=O)NCCNC(=O)c2ccccc2OC)c2ccccc21` [compound 2] had an IC50 in assay [2] of 406 nM.
With `CCOC(=O)[C@]1(c2ccccc2)CC[C@@H](C(=O)N(C)CCCNC(=O)c2ccccc2-c2ccc(C(F)(F)F)cc2)c2ccccc21` [compound 12], the IC50 in assay [1] is 23.2 nM; in assay [2], 6.34 nM.
As for `CCOC(=O)[C@@]1(c2ccccc2)CC[C@H](C(=O)N(C)CCCNC(=O)c2ccccc2OC)c2ccccc21` (stereo in doubt) [compound 28], the IC50 in assay [1] was 95.9 nM; in assay [2], 7.18 nM.
Consider `CCOC(=O)[C@]1(c2ccccc2)CC[C@@H](C(=O)NCCCNC(=O)c2ccccc2-c2ccc(C(F)(F)F)cc2)c2ccccc21` [compound 6], for which the IC50 in assay [1] is 42.7 nM; in assay [2], 9.59 nM.
In the case of `CCOC(=O)[C@]1(c2ccccc2)CC[C@@H](C(=O)N(C)CCCNC(=O)c2ccccc2OC)c2ccccc21` [compound 11], the IC50 in assay [1] was 665 nM.
Take `CCOC(=O)[C@]1(c2ccccc2)CC[C@H](C(=O)N(C)CCCNC(=O)c2ccccc2)c2ccccc21` [compound 22]: the IC50 in assay [1] was 662 nM; in assay [2], 16.4 nM.
Take `CCOC(=O)[C@]1(c2ccccc2)CC[C@H](C(=O)NCCCNC(=O)c2ccccc2-c2ccc(C(F)(F)F)cc2)c2ccccc21` [compound 18]: the IC50 in assay [1] is 309 nM; in assay [2] it was 61.8 nM.
As for `CCOC(=O)[C@]1(c2ccccc2)CC[C@@H](C(=O)NCCCNC(=O)c2ccccc2OC)c2ccccc21` [compound 5], the IC50 in assay [1] was 192 nM; in assay [2] it was 9.38 nM.
Take `CCCOC(=O)[C@]1(c2ccccc2)CCC(C(=O)N2CC[C@@H](NC(=O)c3cccnc3OC)C2)c2ccccc21` (stereo partly shown) [compound 30]: the results for the IC50 in assay [1] and in assay [2] were 76.7 nM and 23.3 nM, respectively.
`CCOC(=O)[C@]1(c2ccccc2)CC[C@@H](C(=O)NCCNC(=O)c2ccccc2-c2ccc(C(F)(F)F)cc2)c2ccccc21` [compound 3] had an IC50 in assay [2] of 208 nM. In other words, the sub-micromolar range.
`COC(=O)CCNC(=O)[C@]1(c2ccccc2)CC[C@@H](C(=O)N2CCCC(NC(=O)c3ccccc3OC)CC2)c2ccccc21` (stereo partly shown) [compound 44] gave an IC50 in assay [2] of 52.8 nM.
Consider `CCOC(=O)[C@]1(c2ccccc2)CC[C@H](C(=O)NCCNC(=O)c2ccccc2OC)c2ccccc21` [compound 14], for which the 50% inhibitory concentration (IC50) in assay [2] was 2490 nM. This IC50 lies about 47-fold higher than the previous one.
For the compound `CCCOC(=O)[C@]1(c2ccccc2)CC[C@@H](C(=O)N2CCC(NC(=O)c3ccccc3OC)C2)c2ccccc21` (stereo partly shown) [compound 29], the results for the IC50 in assay [1] and in assay [2] were 104 nM and 40 nM, respectively.
Take `CCOC(=O)[C@]1(c2ccccc2)CC[C@H](C(=O)NCCCNC(=O)c2ccccc2OC)c2ccccc21` [compound 17]: the half-inhibitory concentration (IC50) in assay [1] is 415 nM; in assay [2], 37.3 nM.
Consider `CCOC(=O)[C@]1(c2ccccc2)CC[C@@H](C(=O)N(C)CCCNC(=O)c2ccccc2)c2ccccc21` [compound 10], for which the IC50 is 746 nM in assay [1] and 10 nM in assay [2].
For `COC(=O)CCNC(=O)[C@]1(c2ccccc2)CC[C@@H](C(=O)N(C)CCCNC(=O)c2ccccc2OC)c2ccccc21` [compound 31], in that order: > 1000 nM and 65.2 nM.
`CCOC(=O)[C@]1(c2ccccc2)CC[C@@H](C(=O)NCCCNC(=O)c2ccccc2)c2ccccc21` [compound 4]: the IC50 in assay [1] is 317 nM; in assay [2], 22.2 nM.
On to `CCOC(=O)[C@]1(c2ccccc2)CC[C@H](C(=O)N(C)CCCNC(=O)c2ccccc2-c2ccc(C(F)(F)F)cc2)c2ccccc21` [compound 24], for which the IC50 is 23.2 nM in assay [1] and 6.11 nM in assay [2].
For `CCOC(=O)[C@]1(c2ccccc2)CC[C@H](C(=O)N(C)CCNC(=O)c2ccccc2)c2ccccc21` [compound 19], in that order: 228 nM and 131 nM.
Regarding `COC(=O)CCNC(=O)[C@]1(c2ccccc2)CC[C@@H](C(=O)N(C)CCCNC(=O)c2cccnc2OC)c2ccccc21` [compound 32], the IC50 is > 1000 nM in assay [1] and 166 nM in assay [2].
As for `CCOC(=O)[C@]1(c2ccccc2)CC[C@H](C(=O)N(C)CCNC(=O)c2ccccc2-c2ccc(C(F)(F)F)cc2)c2ccccc21` [compound 21], the concentration for half-maximal inhibition (IC50) was 240 nM in assay [1] and 48.2 nM in assay [2].
`CCOC(=O)[C@]1(c2ccccc2)CC[C@@H](C(=O)NCCNC(=O)c2ccccc2OC)c2ccccc21` (stereo in doubt) [compound 26]: the IC50 in assay [1] is 560 nM; in assay [2], 173 nM.

One may read the IC50 as the point on the concentration scale where inhibition reaches its midpoint.

(Values after patent US8158783B2, “MTP inhibiting tetrahydro-naphthalene-1-carboxylic acid derivatives” (Janssen Pharmaceutica N.V., priority 2006, dated 2012).)
